Assay results reported in US20120238488A1, “COMPOUNDS AND METHODS FOR TREATING NEOPLASIA” (priority 2009, published 2012).

How the values were obtained:
[1] = tested on: A549 xenografts (lung carcinoma); assay: A549 xenograft anti-tumor activity; assay type: in vivo, Nod/Scid mice
Method: All administrations were intraperitoneal.
At day 20 post inoculation (dpi), mean tumor volume was measured at 117.6 mm^3.
Compound 56 was administered intraperitoneallly using a [(QD×5;2) ×5] scheme. Paclitaxel, used as a positive control, was injected twice weekly for 5 cycles (Tuesday & Friday).

[2] = tested on: HCT116 colon cancer, PC3 and DU145 prostate cancer cell lines; assay: MTT proliferation/viability assay; assay type: cell-based; settings: 72 h, FIGS. 1A-1D, HCT116 only compound 120
Method: All assays were performed in triplicate.
The effect of the different compounds on the proliferation and viability of cancer cell lines was tested. Compound 120 was tested in one colon cancer cell line (HCT116), and compound Nos. 120, 12, 61, 1, and 56 were tested in two prostate cancer cell lines (PC3 and DU145). […] This colorimetric assay uses the reduction of MTT to formazan as a measure of metabolic activity. Untreated cells cultured in the presence of serum were used as a negative control.

[3] = tested on: 22 different cell lines, nine tumor panels (lung, melanoma, ovary, prostate, CNS, breast, pancreas colon and renal); assay: SRB assay, all tumor cell line panels (summary statements); assay type: cell-based, human
Method: SRB assays were performed according to standard National Cancer Institute Guidelines. Briefly, human tumor cells from different cancer panels were seeded into 96 well plates in 100 μL (plating densities ranging from 5-40,000 cells/well depending on the doubling time of individual cell lines) in serum-containing media for twenty-four hours prior to the addition of the compounds to be assayed. After 24 hours, one plate of each cell line was fixed in situ with trichloroacetic acid (TCA). The fixed slides were used to determine the cell population for each cell line at the time of drug addition (Tz). Each compound to be tested was solubilized in DMSO and the desired concentration was then added to the medium and diluted serially 1:10 to provide a total of five or ten drug concentrations plus control (in a final volume of 200 μL). The starting dose before any dilution was 100 uM for all compounds.
Following drug addition, each culture was incubated for forty-eight hours. The assay was terminated with the addition of cold TCA. The supernatant was discarded, and the plates were washed with tap water and air dried. Sulforhodamine B (SRB) solution was then added to each well. After staining, the bound stain was solubilized and the absorbance was read on an automated plate reader at a wavelength of 515 nm.
Using the absorbance measurements [time zero, (Tz), control growth, (C), and test growth in the presence of drug at the ten concentration levels (Ti)], the percentage growth was calculated at each of the drug concentrations levels. Percentage growth inhibition was calculated as:
Three dose response parameters were calculated for each experimental agent. […] The drug concentration resulting in total growth inhibition (TGI) was calculated from Ti=Tz. The LC50 (concentration of drug resulting in a 50% reduction in the measured protein at the end of the drug treatment as compared to that at the beginning) indicating a net loss of cells following treatment was calculated from [(Ti−Tz)/Tz]×100=−50.
Each of these parameters in Table 4 was calculated in a sulforhodamine B (SRB) assay, which provides a colorimetric measure of a compound's anti-cancer activity. SRB assays were performed with compounds of the invention in 22 different cell lines (shaded in light gray in Table 4), which represent nine different tumor panels (lung, melanoma, ovary, prostate, CNS, breast, pancreas colon and renal). […] Paclitaxel was added as a non-Na^+K^+-ATPase inhibitor control.

C[C@]12CCC(=NOC3CCNC3)CC1CCC1C2CC[C@]2(C)C(=O)CCC12 (stereo partly drawn) [Compound 56, (10S,13S)-10,13-dimethyl-3-(pyrrolidin-3-yloxyimino)tetradecahydro-1H-cyclopenta[a]phenanthren-17(2H)-one]
weight changes ([1]; A549 xenograft mice, 20 mgk intraperitoneal): no significant weight changes | DT/DC ([1]; A549 xenografts, day 24, compound 56 20 mgk, paclitaxel 18 mgk, intraperitoneal): −10.47% | post mortem analysis on excised tumors: tumor growth inhibition ([1]; A549 xenografts, compound 56 20 mgk, paclitaxel 18 mgk): statistical significant tumor growth inhibition | anti-tumor activity in A549 xenografts (FIG. 2B) ([1]; mouse, in vivo): has anti-tumor activities | inhibition of cell proliferation and viability (MTT) [2]: strong inhibition of cell proliferation and viability | GI50 ([3]; Homo sapiens, SRB, all cell line panels, read-out: GI50 activity for all cell line panels tested): < 100 nM | GI50 action in all cell line panels tested (in words) ([3]; SRB, all cell line panels): nanomolar GI50 action | viability and/or cell proliferation of neoplastic cell lines ([3]; lung, breast, CNS, colon, prostate, ovary, pancreas, kidney and melanoma lines, including a multidrug resistant cell line): reduced the viability and/or cell proliferation
